Results on four compounds are retold here after ChEMBL document CHEMBL1201862, “PubChem BioAssay data set” (2004).

The target in experiment [1] is T1, Endoribonuclease toxin MazF (Escherichia coli K-12, UniProt P0AE70). Description: substrate-only fluorescence increase artefacts – biochemical, single-stranded RNase substrate, counter-screen for MazEF activator project, dose response (AID 588502). The class given is functional.
Experiment [2] concerns the target T1, Endoribonuclease toxin MazF. Description: activation of MazEF endoribonuclease cleavage – biochemical, fluorescence, single-stranded RNA substrate, uHTS hits, dose response (AID 588481). The class given is functional.
A short description of experiment [3]: HEK-293T cell viability reduction – luminescence, B-cell screen hits, cytotoxicity control for BCR NF-kB inhibitor project, dose response (AID 489021).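 Note: HEK-293T cells carrying an NF-kB luciferase reporter; cells exposed to compound for about 14 hours before viability readout.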 The class given is functional, cell-based.
Experiment [4] deals with A-375. Put plainly: proliferation inhibition in MITF-low A375 cells – cell-based, cherry-pick samples, set 2, counter-screen for MITF modulator project, dose response (AID 540335). The format is functional. Conditions: Homo sapiens.
The subject of experiment [5] is BJ. Description: cells. Conditions: Homo sapiens. The class given is functional, cell-based.
A short description of experiment [6]: DRD fibroblast viability loss – cell-based, non-viral oncogenic, luminescence, dose response (AID 1934). The format is functional. Conditions: Homo sapiens.
The subject of experiment [7] is BJ. Description: BJ-TERT-LT-ST fibroblast viability loss – cell-based, RAS-independent, luminescence, dose response (AID 1935).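 Note: BJ fibroblasts immortalized with TERT plus LT and ST oncogenes.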 The format is functional. Particulars: Homo sapiens.
Experiment [8] in a line: NIH-3T3 fibroblast cytotoxicity, dose response, cytotoxicity control, cell-based, fluorescence, Alamar Blue, secondary assay (AID 2327).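 Note: NIH-3T3 mouse fibroblasts cultured with fluconazole at 8 µg/mL.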 The format is functional.
Experiment [9] concerns BJ. Put plainly: BJ-TERT fibroblast viability loss – cell-based, RAS-independent, luminescence, dose response (AID 1933). Particulars: Homo sapiens. The format is functional.
The nature of experiment [10]: fluconazole-exposed Candida albicans growth modulators – fluorescence, retest, confirmation (AID 2467). The class given is functional, cell-based.
In experiment [11] the target is T2, Microphthalmia-associated transcription factor (Homo sapiens, UniProt O75030).
T2 sequence (O75030 whole entry): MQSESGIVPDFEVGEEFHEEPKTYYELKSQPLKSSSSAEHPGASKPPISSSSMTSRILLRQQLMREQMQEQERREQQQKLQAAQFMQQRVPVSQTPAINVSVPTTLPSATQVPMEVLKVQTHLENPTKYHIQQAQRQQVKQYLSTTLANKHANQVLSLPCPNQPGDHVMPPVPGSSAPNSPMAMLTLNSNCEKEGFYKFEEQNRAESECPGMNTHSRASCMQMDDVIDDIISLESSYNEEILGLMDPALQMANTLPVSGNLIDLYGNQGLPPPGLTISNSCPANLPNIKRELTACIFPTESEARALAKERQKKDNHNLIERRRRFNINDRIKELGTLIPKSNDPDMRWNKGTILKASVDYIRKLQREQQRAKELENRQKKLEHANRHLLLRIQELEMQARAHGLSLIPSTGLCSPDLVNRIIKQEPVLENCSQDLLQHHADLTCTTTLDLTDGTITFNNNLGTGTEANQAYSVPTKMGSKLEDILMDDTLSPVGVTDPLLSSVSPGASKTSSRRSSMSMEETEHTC
Put plainly: reducers of TRPM1 reporter luminescence, concentration series – cell-based, SK-MEL-5, cherry-picked, set 3, MITF inhibitor project, dose response (AID 493073).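 Note: SK-MEL-5 melanoma cells with luciferase driven by the MITF target TRPM1 promoter.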 The format is functional.

Experiment [12] relates to INS1. Put plainly: INS-1E survival protection against cytokine death – cell-based, luminescence, retest, dose response (AID 449756).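 Note: cell death triggered by IL-1 beta plus TNF-alpha plus IFN-gamma mixture; protective hits raise ATP signal compared with cytokine alone wells.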 The class given is functional. Particulars: Rattus norvegicus.
Experiment [13] addresses T3, Short transient receptor potential channel 4 (Mus musculus, UniProt Q9QUQ5).
T3 sequence (Q9QUQ5 whole entry): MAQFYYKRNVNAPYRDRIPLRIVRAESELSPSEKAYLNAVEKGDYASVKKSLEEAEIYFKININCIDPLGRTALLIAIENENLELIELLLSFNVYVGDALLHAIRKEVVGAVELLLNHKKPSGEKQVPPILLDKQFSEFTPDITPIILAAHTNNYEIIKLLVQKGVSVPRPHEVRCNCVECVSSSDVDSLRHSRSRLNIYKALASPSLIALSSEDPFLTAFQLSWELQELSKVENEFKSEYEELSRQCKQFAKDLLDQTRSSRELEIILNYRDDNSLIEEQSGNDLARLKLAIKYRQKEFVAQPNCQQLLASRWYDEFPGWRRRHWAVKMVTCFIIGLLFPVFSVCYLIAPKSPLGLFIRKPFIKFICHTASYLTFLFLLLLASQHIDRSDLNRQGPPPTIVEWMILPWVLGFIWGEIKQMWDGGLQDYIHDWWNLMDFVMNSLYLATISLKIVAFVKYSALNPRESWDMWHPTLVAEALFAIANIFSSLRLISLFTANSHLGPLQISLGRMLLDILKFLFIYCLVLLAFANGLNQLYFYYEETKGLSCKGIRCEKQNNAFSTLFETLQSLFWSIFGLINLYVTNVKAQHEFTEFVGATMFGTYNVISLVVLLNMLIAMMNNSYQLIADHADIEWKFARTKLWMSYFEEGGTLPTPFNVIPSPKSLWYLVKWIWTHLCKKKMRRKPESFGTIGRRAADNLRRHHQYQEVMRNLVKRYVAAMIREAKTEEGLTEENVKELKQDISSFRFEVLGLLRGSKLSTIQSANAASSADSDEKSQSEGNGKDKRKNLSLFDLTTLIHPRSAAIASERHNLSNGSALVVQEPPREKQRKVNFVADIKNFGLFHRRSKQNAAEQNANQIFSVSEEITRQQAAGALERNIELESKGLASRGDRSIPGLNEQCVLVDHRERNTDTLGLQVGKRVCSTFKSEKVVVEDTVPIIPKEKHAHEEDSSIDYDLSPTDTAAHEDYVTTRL
Put plainly: SAR Analysis for the identification of selective inhibits of the transient receptor potential cation channel C4 (TRPC4): Automated Electrophysiology_2. [Related pubchem assays (depositor defined):AID2256]. The class given is functional.

The target in experiment [14] is T3, Short transient receptor potential channel 4. Description: potency of mouse TRPC4 calcium flux blockers – cell-based, HEK293 TRPC4/mu-opioid, DAMGO stimulus, Fluo-4, dose response (AID 492994). The format is functional.
In experiment [15] the target is Phospholipase D1 (Homo sapiens, UniProt Q13393). Put plainly: cellular phospholipase D1 inhibition IC50 – cell-based, dose response (AID 602151).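 Note: cellular PLD1 assay in Calu-1 cells stimulated with PMA.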 The class given is functional.
The target of experiment [16] is Phospholipase D2 (Homo sapiens, UniProt O14939). Put plainly: cellular phospholipase D2 inhibition IC50 – cell-based, dose response (AID 602147).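 Note: cellular assay in HEK293 cells overexpressing GFP-tagged PLD2.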 The class given is functional.

Active and inactive are the calls of the source.

T1 sequence (P0AE70 whole entry): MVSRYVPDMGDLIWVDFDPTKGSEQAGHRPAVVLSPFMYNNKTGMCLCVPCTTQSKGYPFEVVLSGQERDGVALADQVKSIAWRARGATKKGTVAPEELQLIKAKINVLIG
Chain of Phospholipase D1 (Q13393 whole entry): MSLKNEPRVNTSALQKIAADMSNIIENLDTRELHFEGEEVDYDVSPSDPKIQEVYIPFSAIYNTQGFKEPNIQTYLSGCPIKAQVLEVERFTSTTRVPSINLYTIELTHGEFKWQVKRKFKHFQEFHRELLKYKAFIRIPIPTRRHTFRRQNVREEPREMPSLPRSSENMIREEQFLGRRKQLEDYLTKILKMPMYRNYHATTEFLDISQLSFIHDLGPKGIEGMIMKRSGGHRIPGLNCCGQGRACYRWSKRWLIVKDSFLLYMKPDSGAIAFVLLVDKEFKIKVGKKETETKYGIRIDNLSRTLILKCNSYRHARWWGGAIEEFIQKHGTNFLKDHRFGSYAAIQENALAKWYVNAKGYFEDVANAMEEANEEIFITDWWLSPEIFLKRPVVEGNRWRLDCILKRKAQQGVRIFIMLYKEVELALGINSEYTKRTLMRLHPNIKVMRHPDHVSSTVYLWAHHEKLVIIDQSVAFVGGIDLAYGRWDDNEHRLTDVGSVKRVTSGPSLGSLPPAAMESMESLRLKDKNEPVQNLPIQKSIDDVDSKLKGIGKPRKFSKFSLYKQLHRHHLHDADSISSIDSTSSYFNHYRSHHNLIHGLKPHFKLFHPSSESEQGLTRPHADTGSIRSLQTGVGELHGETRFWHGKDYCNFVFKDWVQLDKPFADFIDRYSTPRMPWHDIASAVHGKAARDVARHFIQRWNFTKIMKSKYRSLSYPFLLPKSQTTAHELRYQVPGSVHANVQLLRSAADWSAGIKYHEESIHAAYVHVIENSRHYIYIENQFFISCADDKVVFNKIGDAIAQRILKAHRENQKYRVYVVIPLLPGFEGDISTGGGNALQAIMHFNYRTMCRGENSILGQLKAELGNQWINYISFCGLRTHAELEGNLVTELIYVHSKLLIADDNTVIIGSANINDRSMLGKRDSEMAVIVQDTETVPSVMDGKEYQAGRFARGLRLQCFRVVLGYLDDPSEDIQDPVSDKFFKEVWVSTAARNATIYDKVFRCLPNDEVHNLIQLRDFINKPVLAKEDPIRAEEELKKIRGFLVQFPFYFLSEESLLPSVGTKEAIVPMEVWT
Chain of Phospholipase D2 (O14939 whole entry): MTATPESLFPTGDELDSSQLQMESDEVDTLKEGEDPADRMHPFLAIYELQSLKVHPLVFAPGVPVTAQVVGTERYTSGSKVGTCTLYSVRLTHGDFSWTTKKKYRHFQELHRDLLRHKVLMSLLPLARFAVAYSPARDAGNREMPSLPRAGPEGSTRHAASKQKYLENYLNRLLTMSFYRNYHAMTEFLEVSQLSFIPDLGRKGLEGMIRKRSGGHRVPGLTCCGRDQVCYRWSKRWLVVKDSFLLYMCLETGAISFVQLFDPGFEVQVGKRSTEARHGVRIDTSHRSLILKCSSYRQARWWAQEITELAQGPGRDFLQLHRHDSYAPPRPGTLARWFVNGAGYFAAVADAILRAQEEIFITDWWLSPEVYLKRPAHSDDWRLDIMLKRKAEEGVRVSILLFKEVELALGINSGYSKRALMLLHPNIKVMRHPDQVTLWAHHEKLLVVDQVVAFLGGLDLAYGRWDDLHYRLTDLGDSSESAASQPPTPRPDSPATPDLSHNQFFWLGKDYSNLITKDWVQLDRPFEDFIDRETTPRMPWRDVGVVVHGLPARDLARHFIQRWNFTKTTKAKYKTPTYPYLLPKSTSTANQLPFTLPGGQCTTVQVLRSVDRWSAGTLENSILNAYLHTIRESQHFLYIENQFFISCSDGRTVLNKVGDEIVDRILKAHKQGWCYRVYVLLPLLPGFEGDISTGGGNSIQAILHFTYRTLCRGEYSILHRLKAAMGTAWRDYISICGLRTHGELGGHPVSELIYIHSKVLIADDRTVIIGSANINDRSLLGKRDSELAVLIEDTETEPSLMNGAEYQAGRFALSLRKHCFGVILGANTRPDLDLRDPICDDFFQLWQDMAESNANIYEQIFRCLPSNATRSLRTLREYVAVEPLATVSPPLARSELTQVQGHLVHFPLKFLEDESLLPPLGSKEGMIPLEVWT

`C=CCn1c(=N)c(S(=O)(=O)c2ccc(C)c(C)c2)cc2c(=O)n3ccccc3nc21`: the EC50 is 52.2 µM (inactive) in experiment [1] and 31.9 µM (inactive) in experiment [2].

`Cc1ccc(C(=O)Cn2cc(-c3ccc(C)cc3)[n+]3c2CCCCC3)cc1`: the IC50 in experiment [3] is > 80 µM (inactive). Also, the figures for the AC50 in [4], in [11] and in experiment [12] were 40.5 µM (active), 3.63 µM (active) and 1.3 µM (active), respectively. In addition, the EC50 in [5] was > 150 µM (not active); in experiment [6], 85.7 µM (active); in [7], > 150 µM (not active); in [8], > 150 µM (inactive); in experiment [9], 17.3 µM (active); in [10], 1.32 µM (active).

On to `Cc1cc(N2CCOc3ccccc32)nc2ccccc12`, for which the concentration for half-maximal inhibition (IC50) in [13] was 24.5 µM (active); in experiment [14] it was 12 µM (active).

For the compound `O=C(NCCN1CCN(c2ccncc2)CC1)c1cc2cc(F)ccc2[nH]1`, the values for the IC50 in [15] and in experiment [16] were 3.6 µM (active) and 15 µM (active), respectively.
